The compounds below were run against T1, human recombinant P2X7 receptor (Homo sapiens, UniProt Q99572) (assay: YO-PRO assay (YO-PRO-1 uptake) in HEK cells stably expressing P2X7). Settings: HEK-293 cells expressing human recombinant P2X7 receptor; ATP 250 μM, 90 minutes; YO-PRO-1 fluorescence (FLIPR tetra); read-out: IC50 (antagonistic activity with respect to the P2X7 receptor).
T1 construct: expressed in transfected cells
T1 sequence (Q99572 1-595): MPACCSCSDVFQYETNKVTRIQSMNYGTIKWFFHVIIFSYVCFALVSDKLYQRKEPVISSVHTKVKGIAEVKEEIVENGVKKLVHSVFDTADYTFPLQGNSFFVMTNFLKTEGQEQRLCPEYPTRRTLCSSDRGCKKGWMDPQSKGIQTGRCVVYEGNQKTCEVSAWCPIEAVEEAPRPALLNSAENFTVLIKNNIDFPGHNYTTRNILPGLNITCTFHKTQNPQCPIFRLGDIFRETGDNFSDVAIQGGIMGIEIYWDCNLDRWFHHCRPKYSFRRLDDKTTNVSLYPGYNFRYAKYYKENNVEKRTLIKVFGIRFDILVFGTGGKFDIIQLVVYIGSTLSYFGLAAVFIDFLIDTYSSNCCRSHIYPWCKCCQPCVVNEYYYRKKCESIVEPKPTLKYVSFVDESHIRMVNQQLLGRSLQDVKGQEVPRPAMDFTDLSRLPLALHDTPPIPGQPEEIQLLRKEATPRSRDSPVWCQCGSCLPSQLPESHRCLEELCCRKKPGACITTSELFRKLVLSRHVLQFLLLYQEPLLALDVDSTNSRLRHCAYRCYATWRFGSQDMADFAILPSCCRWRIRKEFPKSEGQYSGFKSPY
Type: cell-based
Method: Cell line generation was performed in general according to established molecular cloning protocols. Specifically, RNA was extracted from human whole blood using the Qiagen RNeasy kit (Qiagen, CH) according to the manufacturer's instructions. Subsequently cDNA was made (Superscript II, Invitrogen AG, CH) and the human P2X7 gene (genbank ref. BC011913) was amplified with the following primers: [NT] and [NT] The amplified sequence was subsequently ligated into a pcDNA3.1 (+) NotI, NheI digested plasmid. […] Following a 24 h exposure to DNA, cells were trypsinized and re-seeded at low density in the presence of 250 μg Geneticin. Geneticin resistant cells were then selected during two consecutive rounds of cloning by serial limiting dilution with visual inspection. Individual clones were screened for P2X7 expression by applying ATP and recording the resultant uptake of YO-[…]. Specific cell clones were chosen based on RNA and protein expression. HEK cells stably expressing P2X7 were used to screen drugs using the YO-[…] assay. Cells were grown to confluency in adherent culture at 37° C. in a humidified 5% CO2 incubator (split 1/5 every 3-4 days with DMEM, 10% FCS, 1% Penicillin/Streptomycin, 250 μg/ml Geneticin). Adherent cells were detached by incubation with Trypsine (1 ml per 165 cm^2 dish) for 2 minutes, then washed off with 10 ml PBS (without Mg^2+ and Ca^2+), and resuspended in DMEM, 10% FCS, 1% Penicillin/Streptomycin, no Geneticin. 10'000 cells per well (48 hours before the assay) or 25'000 cells per well (Vi-cell XR (Beckman Coulter) (24 hours before the assay) in 50 μl full medium were seeded on 384-well black-wall, clear bottom plates, that were coated before with 10 μl per well Poly-L-Lysine, incubated for 30-60 minutes at 37° C. and washed once with PBS. Medium was removed from cells and 50 μl of assay buffer containing 0.5 μM YO-[…] was added into the wells. Solutions of antagonist compounds were prepared by serial dilutions of a 10 mM DMSO solution of the antagonist into PBS using a BioMek (Beckman Coulter). Each concentration was performed in duplicate. […] During this time period, four time points were taken. Each time point comprised the average of several measurements made within a few seconds. […] The FLIPR tetra was equipped with Molecular Devices Screen Works system control software to define and run experimental protocols. […] For IC50 measurements the maximum intensity is plotted against the concentration of compound to determine IC50 values.
In the case of `COc1nccc(N(CC(C)C)c2ccc(Cl)c(C(=O)NCC3(O)CCCCC3)c2)n1` [Example 28, 2-Chloro-N-(1-hydroxy-cyclohexylmethyl)-5-[isobutyl-(2-methoxy-pyrimidin-4-yl)-amino]-benzamide], the IC50 is reported as 0.353 µM.
For `COc1nccc(N(CCOc2ccccc2)c2ccc(Cl)c(C(=O)NCC3(O)CCCCC3)c2)n1` [Example 40, 2-Chloro-N-(1-hydroxy-cyclohexylmethyl)-5-[(2-methoxy-pyrimidin-4-yl)-(2-phenoxy-ethyl)-amino]-benzamide], the IC50 was 0.588 µM.
With `CN(C)c1nccc(N(C)c2ccc(Cl)c(C(=O)NCC3(O)CCCCC3)c2)n1` [Example 15, 2-Chloro-5-[(2-dimethylamino-pyrimidin-4-yl)-methyl-amino]-N-(1-hydroxy-cyclohexylmethyl)-benzamide] the IC50 was 0.177 µM.
`O=C(NCC1(O)CCCCC1)c1cc(C(F)c2cc[nH]c(=O)n2)ccc1Cl` (racemic) [Example 152, rac-2-Chloro-5-[fluoro-(2-oxo-1,2-dihydro-pyrimidin-4-yl)-methyl]-N-(1-hydroxy-cyclohexylmethyl)-benzamide] gave an IC50 of 0.025 µM.
`O=C(NCC1(O)CCCCC1)c1cc(Oc2cccnc2)ccc1Cl` [Example 107, 2-Chloro-N-(1-hydroxy-cyclohexylmethyl)-5-(pyridin-3-yloxy)-benzamide] was tested, and the IC50 was 0.07 µM.
`CN(c1ccc(Cl)c(C(=O)NCC2(O)CCCCCC2)c1)c1ccnc(Cl)n1` [Example 45, 2-Chloro-5-[(2-chloro-pyrimidin-4-yl)-methyl-amino]-N-(1-hydroxy-cycloheptylmethyl)-benzamide] showed an IC50 of 0.089 µM.
With `COCCN(c1ccc(Cl)c(C(=O)NCC2(O)CCCCC2)c1)c1cnccn1` [Example 80, 2-Chloro-N-(1-hydroxy-cyclohexylmethyl)-5-[(2-methoxy-ethyl)-pyrazin-2-yl-amino]-benzamide] the IC50 was 1.43 µM.
For `CN(c1ccc(Cl)c(C(=O)NCC2(O)CCCCC2)c1)c1nccnc1Cl` [Example 86, 2-Chloro-5-[(3-chloro-pyrazin-2-yl)-methyl-amino]-N-(1-hydroxy-cyclohexylmethyl)-benzamide], the IC50 was 0.061 µM.
In the case of `O=C(NCC1(O)CCCCC1)c1cc(Oc2cccc(=O)[nH]2)ccc1Cl` [Example 112, 2-Chloro-N-(1-hydroxy-cyclohexylmethyl)-5-(6-oxo-1,6-dihydro-pyridin-2-yloxy)-benzamide], the IC50 is reported as 0.043 µM.
`CN(c1ccc(Cl)c(C(=O)N[C@H](CO)C2CCCCC2)c1)c1cc[nH]c(=O)n1` [Example 44, 2-Chloro-N—((S)-1-cyclohexyl-2-hydroxy-ethyl)-5-[methyl-(2-oxo-1,2-dihydro-pyrimidin-4-yl)-amino]-benzamide] showed an IC50 of 0.033 µM.
Work on `O=C(NCC1(O)CCCCC1)c1cc(Nc2cnccn2)ccc1Cl` [Example 78, 2-Chloro-N-(1-hydroxy-cyclohexylmethyl)-5-(pyrazin-2-ylamino)-benzamide] yielded an IC50 of 0.439 µM.
Work on `O=C(NCC1(O)CCCCC1)c1cc(Nc2ncccn2)ccc1Cl` [Example 69, 2-Chloro-N-(1-hydroxy-cyclohexylmethyl)-5-(pyrimidin-2-ylamino)-benzamide] yielded an IC50 of 0.326 µM.
Work on `COc1nccc(N(C)c2ccc(C)c(C(=O)NCC3(O)CCCCC3)c2)n1` [Example 154, N-(1-Hydroxy-cyclohexylmethyl)-5-[(2-methoxy-pyrimidin-4-yl)-methyl-amino]-2-methyl-benzamide] yielded an IC50 of 0.629 µM.
Compound `CN(c1ccc(Cl)c(C(=O)NCC2(O)CCCCCC2)c1)c1cc[nH]c(=O)n1` [Example 46, 2-Chloro-N-(1-hydroxy-cycloheptylmethyl)-5-[methyl-(2-oxo-1,2-dihydro-pyrimidin-4-yl)-amino]-benzamide] has an IC50 of 0.021 µM.
Compound `COc1nccc(C(C)(O)c2ccc(Cl)c(C(=O)NCC3(O)CCCCC3)c2)n1` (racemic) [Example 159, rac-2-Chloro-N-(1-hydroxy-cyclohexylmethyl)-5-[1-hydroxy-1-(2-methoxy-pyrimidin-4-yl)-ethyl]-benzamide] has an IC50 of 0.346 µM.
Work on `CN(c1ccc(Cl)c(C(=O)NCC2(O)CCCCC2)c1)c1cc[nH]c(=O)n1` [Example 17, 2-Chloro-N-(1-hydroxy-cyclohexylmethyl)-5-[methyl-(2-oxo-1,2-dihydro-pyrimidin-4-yl)-amino]-benzamide] yielded an IC50 of 0.035 µM.
`COc1cnc(N(C)c2ccc(Cl)c(C(=O)NCC3(O)CCCCC3)c2)cn1` [Example 88, 2-Chloro-N-(1-hydroxy-cyclohexylmethyl)-5-[(5-methoxy-pyrazin-2-yl)-methyl-amino]-benzamide] showed an IC50 of 0.302 µM.
Compound `COCCN(c1ccccc1)c1ccc(Cl)c(C(=O)NCC2(O)CCCCC2)c1` [Example 3, 2-Chloro-N-(1-hydroxy-cyclohexylmethyl)-5-[(2-methoxy-ethyl)-phenyl-amino]-benzamide] has an IC50 of 0.538 µM.
In the case of `CN(c1ccc(Cl)c(C(=O)NCC2(O)CCCCC2)c1)c1cnccn1` [Example 79, 2-Chloro-N-(1-hydroxy-cyclohexylmethyl)-5-(methyl-pyrazin-2-yl-amino)-benzamide], the IC50 is reported as 0.352 µM.
Work on `COc1nccc([S+]([O-])c2ccc(Cl)c(C(=O)NCC3(O)CCCCC3)c2)n1` (racemic) [Example 140, rac-2-Chloro-N-(1-hydroxy-cyclohexylmethyl)-5-(2-methoxy-pyrimidine-4-sulfinyl)-benzamide] yielded an IC50 of 0.914 µM.
`CSc1nccc(Nc2ccc(Cl)c(C(=O)N[C@H](C)C3CCCCC3)c2)n1` [Example 59, 2-Chloro-N—((R)-1-cyclohexyl-ethyl)-5-(2-methylsulfanyl-pyrimidin-4-ylamino)-benzamide] gave an IC50 of 1.81 µM.
With `O=C(NCC1(O)CCCCC1)c1cc(Oc2ccc(=O)[nH]n2)ccc1Cl` [Example 129, 2-Chloro-N-(1-hydroxy-cyclohexylmethyl)-5-(6-oxo-1,6-dihydro-pyridazin-3-yloxy)-benzamide] the IC50 was 0.08 µM.
`CN(C)c1cncc(Oc2ccc(Cl)c(C(=O)NCC3(O)CCCCC3)c2)n1` [Example 125, 2-Chloro-5-(6-dimethylamino-pyrazin-2-yloxy)-N-(1-hydroxy-cyclohexylmethyl)-benzamide] showed an IC50 of 0.504 µM.
Compound `O=C(NCC1(O)CCCCC1)c1cc(Sc2cc[nH]c(=O)n2)ccc1Cl` [Example 137, 2-Chloro-N-(1-hydroxy-cyclohexylmethyl)-5-(2-oxo-1,2-dihydro-pyrimidin-4-ylsulfanyl)-benzamide] has an IC50 of 0.0081 µM.
`CN(c1ccc(Cl)c(C(=O)NCC2(O)CCCCC2)c1)c1ccc(=O)[nH]n1` [Example 90, 2-Chloro-N-(1-hydroxy-cyclohexylmethyl)-5-[methyl-(6-oxo-1,6-dihydro-pyridazin-3-yl)-amino]-benzamide] was tested, and the IC50 was 0.905 µM.
Work on `O=C(NCC1(O)CCCCC1)c1cc(Oc2cnccn2)ccc1Cl` [Example 121, 2-Chloro-N-(1-hydroxy-cyclohexylmethyl)-5-(pyrazin-2-yloxy)-benzamide] yielded an IC50 of 0.093 µM.
Work on `O=C(NCC1(O)CCCCC1)c1cc(Cn2ccccc2=O)ccc1Cl` [Example 142, 2-Chloro-N-(1-hydroxy-cyclohexylmethyl)-5-(2-oxo-2H-pyridin-1-ylmethyl)-benzamide] yielded an IC50 of 0.08 µM.
`CC(O)(c1ccc(Cl)c(C(=O)NCC2(O)CCCCC2)c1)c1cc[nH]c(=O)n1` (single isomer, unassigned) [Example 157, 2-Chloro-N-(1-hydroxy-cyclohexylmethyl)-5-[1-hydroxy-1-(2-oxo-1,2-dihydro-pyrimidin-4-yl)-ethyl]-benzamide] was tested, and the IC50 was 0.009 µM.
With `O=C(NCC1(O)CCCCC1)c1cc([S+]([O-])c2ccccn2)ccc1Cl` (racemic) [Example 133, rac-2-Chloro-N-(1-hydroxy-cyclohexylmethyl)-5-(pyridine-2-sulfinyl)-benzamide] the IC50 was 0.265 µM.
